Assay results reported in PMC5831360 (Nature chemical biology, 2017).
Where “and” joins values, the source holds several entries; their conditions need not be identical. Equal values may be shown once.

Experiments:
[1] = system: SPIN1; details: cited from earlier work
[2] = system: Spindlin1-H3K4me3 interaction; details: read-out: IC50, in vitro inhibition of Spindlin1-H3K4me3 interaction; AlphaLISA; cited from earlier work
[3] = biological target: SPIN1 (SPIN1_50–262) (Homo sapiens, UniProt Q9Y657); test: Isothermal titration calorimetry; format: binding; details: read-out: dissociation constant (Kd) with SPIN1; ITC, 25 °C, pH 7.5
Chain of SPIN1 (SPIN1_50–262) (Q9Y657 50-262): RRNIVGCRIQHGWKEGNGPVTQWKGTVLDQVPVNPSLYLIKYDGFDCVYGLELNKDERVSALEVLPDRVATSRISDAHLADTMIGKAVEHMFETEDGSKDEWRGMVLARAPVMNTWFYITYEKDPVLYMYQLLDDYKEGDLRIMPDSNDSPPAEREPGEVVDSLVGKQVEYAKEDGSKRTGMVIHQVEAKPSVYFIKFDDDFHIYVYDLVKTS

[4] = system: SPIN1 target genes (rRNA, IL1B, BST2, C1QTNF1, ALDH1A3, IFI44L) in T778 cells; test: RT-qPCR of SPIN1-regulated genes after compound treatment; format: cell-based, human; details: 4 days
[5] = biological target: Tudor domains of PHF20 (Homo sapiens, UniProt Q9BVI0); test: Protein domain microarray probing with biotin-tagged compounds; format: binding; details: biotinylated compound, 1 μM, Cy3-streptavidin
Target sequence in this assay (Q9BVI0 4-147): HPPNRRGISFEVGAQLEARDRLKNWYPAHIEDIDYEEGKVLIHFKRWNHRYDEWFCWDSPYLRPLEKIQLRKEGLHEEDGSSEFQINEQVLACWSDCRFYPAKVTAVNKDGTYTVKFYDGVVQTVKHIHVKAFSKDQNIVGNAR

[6] = biological target: T1, Tudor domains of 53BP1 (Homo sapiens, UniProt Q12888); test: as above; format: binding; details: biotinylated compound, 1 μM, Cy3-streptavidin
T1 sequence (Q12888 1484-1603 limits assumed): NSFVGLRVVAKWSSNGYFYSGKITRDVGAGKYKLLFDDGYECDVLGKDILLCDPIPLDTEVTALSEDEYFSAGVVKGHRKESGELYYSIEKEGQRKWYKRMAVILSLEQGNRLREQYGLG

[7] = biological target: recombinant SPIN1 (Homo sapiens, UniProt Q9Y657); test: In vitro thermal shift assay; format: binding; details: 100 μM compound, 1 mg/mL SPIN1, Sypro Orange
Chain of recombinant SPIN1 (Q9Y657 50-262): as the sequence (Q9Y657 50-262) above

[8] = biological target: Spindlin1 (SPIN1), three Tudor domains (Homo sapiens, UniProt Q9Y657); test: Protein domain microarray probing with biotin-tagged compounds; format: binding; details: biotinylated compound, 1 μM, Cy3-streptavidin
Chain of Spindlin1 (SPIN1), three Tudor domains (Q9Y657 whole entry, the tested form may be a part): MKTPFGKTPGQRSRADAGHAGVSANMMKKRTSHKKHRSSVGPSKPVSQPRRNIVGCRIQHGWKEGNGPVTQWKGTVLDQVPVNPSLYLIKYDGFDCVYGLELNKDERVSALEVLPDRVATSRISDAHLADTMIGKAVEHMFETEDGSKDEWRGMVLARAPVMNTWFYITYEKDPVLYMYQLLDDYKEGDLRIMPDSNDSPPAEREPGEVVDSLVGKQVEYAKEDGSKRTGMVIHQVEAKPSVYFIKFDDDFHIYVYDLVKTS

[9] = biological target: GFP-SPIN1 in transfected HeLa cells (Homo sapiens, UniProt Q9Y657); test: Cellular thermal shift assay; format: cell-based; details: 20 μM, overnight
Chain of GFP-SPIN1 in transfected HeLa cells (Q9Y657 whole entry): as the sequence (Q9Y657 whole entry, the tested form may be a part) above

[10] = biological target: SPIN1-TCF4 interaction (Homo sapiens, UniProt Q9Y657); test: SPIN1-TCF4 interaction assay; format: binding
Chain of SPIN1-TCF4 interaction (Q9Y657 whole entry, the tested form may be a part): as above

[11] = biological target: yeast Tudor domain (SPF30^sp) (Schizosaccharomyces pombe, UniProt O94519); test: Protein domain microarray probing with biotin-tagged compounds; format: binding; details: biotinylated compound, 1 μM, Cy3-streptavidin
Chain of yeast Tudor domain (SPF30^sp) (O94519 76-139 limits assumed): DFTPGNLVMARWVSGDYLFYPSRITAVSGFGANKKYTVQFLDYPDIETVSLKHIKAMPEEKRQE

[12] = biological target: SPIN1-H3K4me3 interaction (Homo sapiens, UniProt Q9Y657); test: Competition pulldown, bead-bound H3K4me3 peptide and GST-SPIN1; format: binding; details: untagged compound, increasing concentrations
Chain of SPIN1-H3K4me3 interaction (Q9Y657 50-262): as the sequence (Q9Y657 50-262) above

[13] = biological target: GFP-SPIN1(FL) (Homo sapiens, UniProt Q9Y657); format: binding; details: HEK293 whole cell lysate, bead-immobilized biotinylated compound
Chain of GFP-SPIN1(FL) (Q9Y657 whole entry): as the sequence (Q9Y657 whole entry, the tested form may be a part) above

[14] = system: SPIN1 target genes in GFP-SPIN1 transfected T778 cells; test: RT-qPCR of SPIN1 target genes after GFP-SPIN1 overexpression; format: cell-based, human; details: 10 μM, 24 h after GFP-SPIN1 transfection
[15] = system: PHF20L1; test: Protein domain microarray probing with biotin-tagged compounds; format: binding, human; details: biotinylated compound, 1 μM, Cy3-streptavidin
[16] = system: subset of MBT domains; test: as above; format: binding, human; details: biotinylated compound, 1 μM, Cy3-streptavidin
[17] = biological target: SPIN4 (Homo sapiens, UniProt Q56A73); test: Chemiprecipitation of SPIN family members with tagged compound; format: binding
Chain of SPIN4 (Q56A73 whole entry, the tested form may be a part): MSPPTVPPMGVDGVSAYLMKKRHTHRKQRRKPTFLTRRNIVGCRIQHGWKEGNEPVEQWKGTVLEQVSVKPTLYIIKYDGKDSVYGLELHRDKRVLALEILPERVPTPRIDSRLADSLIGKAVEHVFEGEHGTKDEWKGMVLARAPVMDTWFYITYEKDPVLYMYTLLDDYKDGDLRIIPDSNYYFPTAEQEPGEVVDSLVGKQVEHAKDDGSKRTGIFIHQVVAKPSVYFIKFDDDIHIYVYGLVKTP

[18] = biological target: MBT domains of L3MBTL3 (Homo sapiens, UniProt Q96JM7); test: Isothermal titration calorimetry; format: binding; details: Kd for L3MBTL3, ITC counter screen
Chain of MBT domains of L3MBTL3 (Q96JM7 232-543 limits assumed): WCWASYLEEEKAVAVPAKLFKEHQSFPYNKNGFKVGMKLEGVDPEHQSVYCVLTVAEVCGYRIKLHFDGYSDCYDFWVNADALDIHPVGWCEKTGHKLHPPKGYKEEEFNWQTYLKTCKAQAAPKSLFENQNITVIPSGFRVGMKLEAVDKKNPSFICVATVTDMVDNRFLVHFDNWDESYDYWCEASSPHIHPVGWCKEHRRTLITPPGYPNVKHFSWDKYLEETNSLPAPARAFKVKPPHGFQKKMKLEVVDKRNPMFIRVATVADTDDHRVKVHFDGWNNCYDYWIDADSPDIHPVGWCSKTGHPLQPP

[19] = system: T778 liposarcoma cells; test: RNA-seq of compound-treated versus SPIN1 knockdown cells; format: cell-based, human; details: 10 μM, 3 days
[20] = system: GFP-SPIN1 recruitment to promoter regions of rDNA and IL1B in T778 cells; test: α-GFP ChIP-qPCR of SPIN1 chromatin association; format: cell-based, human; details: 10 μM, overnight
[21] = biological target: T1, Tudor domains of 53BP1; test: Isothermal titration calorimetry; format: binding; details: Kd for 53BP1, ITC counter screen
[22] = biological target: MBT domains of L3MBTL1 (Homo sapiens, UniProt Q9Y468); test: Isothermal titration calorimetry; format: binding; details: Kd for L3MBTL1, ITC counter screen
Chain of MBT domains of L3MBTL1 (Q9Y468 274-585 limits assumed): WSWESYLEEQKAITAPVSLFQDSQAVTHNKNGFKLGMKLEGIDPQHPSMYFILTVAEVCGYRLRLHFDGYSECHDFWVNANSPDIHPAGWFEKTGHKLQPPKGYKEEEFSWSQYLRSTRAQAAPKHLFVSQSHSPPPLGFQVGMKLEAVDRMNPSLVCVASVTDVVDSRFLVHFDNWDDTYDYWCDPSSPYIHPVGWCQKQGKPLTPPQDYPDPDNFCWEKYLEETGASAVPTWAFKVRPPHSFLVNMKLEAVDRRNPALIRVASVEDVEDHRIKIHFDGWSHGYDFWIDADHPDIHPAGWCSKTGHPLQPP

[23] = biological target: Tudor domains of PHF20 (Homo sapiens, UniProt Q9BVI0); test: Isothermal titration calorimetry; format: binding; details: Kd for PHF20, ITC counter screen
Target sequence in this assay (Q9BVI0 83-147 limits assumed): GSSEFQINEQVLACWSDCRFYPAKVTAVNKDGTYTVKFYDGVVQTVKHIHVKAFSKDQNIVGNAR

[24] = system: SPIN2a/b; test: Chemiprecipitation of SPIN family members with tagged compound; format: binding
[25] = biological target: GFP-53BP1 (Homo sapiens, UniProt Q12888); format: binding; details: HEK293T whole cell lysate, bead-immobilized biotinylated compound
Chain of GFP-53BP1 (Q12888 1144-1709): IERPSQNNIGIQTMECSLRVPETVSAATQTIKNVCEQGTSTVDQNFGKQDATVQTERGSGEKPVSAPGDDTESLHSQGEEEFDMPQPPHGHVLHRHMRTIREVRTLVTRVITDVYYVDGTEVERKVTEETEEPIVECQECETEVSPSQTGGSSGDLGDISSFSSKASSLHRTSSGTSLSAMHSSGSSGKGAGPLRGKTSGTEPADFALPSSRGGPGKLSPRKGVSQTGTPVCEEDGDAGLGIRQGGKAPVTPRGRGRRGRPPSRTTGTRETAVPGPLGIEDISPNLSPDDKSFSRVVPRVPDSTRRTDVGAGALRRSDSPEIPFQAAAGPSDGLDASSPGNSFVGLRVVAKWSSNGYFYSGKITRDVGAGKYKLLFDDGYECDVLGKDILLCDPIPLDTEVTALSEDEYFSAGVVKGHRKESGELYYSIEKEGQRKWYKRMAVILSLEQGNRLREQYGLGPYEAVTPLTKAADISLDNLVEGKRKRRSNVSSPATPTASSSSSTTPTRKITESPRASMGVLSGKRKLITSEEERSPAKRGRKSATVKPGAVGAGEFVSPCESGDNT

COc1cc2c(cc1OCCCN1CCCC1)N=C(N)C21CCC1 [A366]
cell-based activity [1]: 100 µM
IC50 [2]: ~0.2 µM

O=C(c1ccc(C(=O)N2CCC(CCN3CCCC3)CC2)c(Nc2ccccc2)c1)N1CCC(CCN2CCCC2)CC1 [EML405]
Kd [3]: 15 µM
expression levels of six SPIN1-regulated candidate genes ([4]; 20 μM): decrease in the expression levels of all six candidate genes
binding to Tudor domains of PHF20 on protein domain microarray [5]: bound strongly
binding to Tudor domains of 53BP1 on protein domain microarray [6]: bound strongly
increase of melting temperature of SPIN1 [7]: 5 °C
binding to Spindlin1 on protein domain microarray [8]: bound strongly
stabilization of GFP-SPIN1 at high temperatures (CETSA) [9]: stabilization
block of SPIN1-TCF4 interaction [10]: blocked this interaction
binding to yeast Tudor domain SPF30^sp on protein domain microarray [11]: bound strongly
inhibition of H3K4me3 peptide - GST-SPIN1 interaction [12]: higher concentrations of EML405 than EML631–633 were needed to inhibit the interaction
pulldown of GFP-SPIN1 by tagged compound [13]: detected the pulldown of GFP-SPIN1
SPIN1-overexpression-elevated expression of target genes [14]: dramatically attenuated
binding to PHF20L1 on protein domain microarray [15]: bound strongly
binding to a subset of MBT domains on protein domain microarray [16]: bound strongly

O=C(c1ccc(C(=O)N2CCC(CCN3CCCC3)CC2)c(Nc2ccc(OCN3CCCC3)cc2)c1)N1CCC(CCN2CCCC2)CC1 [EML631]
interaction of tagged compound with SPIN4 [17]: no interaction
Kd [18]: < 100 µM and > 100 µM
transcripts down regulated in both SPIN1 knockdown and compound-treated cells [19]: 655
expression levels of six SPIN1-regulated candidate genes ([4]; 10 μM): decrease in the expression levels of all six candidate genes
GFP-SPIN1 recruitment to promoter regions of rDNA and IL1B [20]: recruitment was blocked
Kd [21]: < 100 µM and > 100 µM
Kd [22]: < 100 µM and > 100 µM
Kd [23]: < 100 µM and > 100 µM
pulldown of SPIN2a/b by tagged compound [24]: reduced pulldown
SPIN1-overexpression-elevated expression of target genes [14]: dramatically attenuated

O=C(c1ccc(C(=O)N2CCC(N3CCCC3)CC2)c(Nc2ccccc2)c1)N1CCC(N2CCCC2)CC1 [UNC1215, reference compound]
interaction of tagged compound with GFP-53BP1 [25]: able to interact with GFP-53BP1
stabilization of GFP-SPIN1 at high temperatures (CETSA) [9]: not with UNC1215
inhibition of H3K4me3 peptide - GST-SPIN1 interaction [12]: not active
